Reference: patent US20250290045A1, “SMALL MOLECULES AND METHODS FOR MODULATING TEMPORAL CONTROL OF GELATION AND HYDROGEL MECHANICS” (The Board of Trustees of the Leland Stanford Junior …, priority 2022, published 2025)
Values joined by “and” are separate entries in the source; they are usually repeats but may differ in a detail not shown here. Equal entries are not always repeated. “Also recorded” adds a separate entry of the source.

What was measured:
[1] = Storage modulus of HELP hydrogel with competitor, oscillatory shear rheology; type: physicochemical; details: for HELP modulus: 0 mM control ~3 kPa; for storage modulus (G) of HELP hydrogel, dose response: FIG. 11C, D, increasing competitor concentration, n=3; for fold change in modulus: HELP system, relative to no competitor
Method: The term “storage modulus” as used herein may be used interchangeably with the term “stiffness”. Storage modulus refers to the ratio of the elastic stress to strain and indicates a material's ability to store energy. The storage modulus may be measured using oscillatory shear rheology
The storage modulus of the HELP hydrogels were measured using oscillatory shear rheology.
The HELP hydrogel composition was 1 wt % ELP-Hydrazine (fully modified) and 1 wt % HA-Aldehyde (12% modified). Hydrazinoacetic acid was added to HELP hydrogels in four separate final concentrations, 0 mM, 5 mM, 10 mM and 20 mM and the storage modulus was measured over the course of 30 minutes.
The catalyst agent was 2-(Aminomethyl)benzimidazole and the competitor agent was butyraldehyde. The competitor agent was added at HELP hydrogels at a final concentration of 10 mM and the catalyst agent was added to a final concentration of 0.10 and 25 mM. The composition of the HELP hydrogel was 2 wt % ELP-Hydrazine (fully modified) and 1 wt % HA-Benzaldehyde (30% modified).
To initially assess the impact of a competitor on hydrogel stiffness, it was proposed that the effect on crosslinking density will depend upon the relative strength of the two competing reactions: (1) crosslinking-site and competitor and (2) crosslinking reaction (FIG. 11A). It was predict that as the relative strength of the competitor reaction (Keq^1) to crosslinking reaction (Keq^2) increases, there will be a greater disruption of crosslinks. To validate this, the impact of competitor Keq on the modulus of HELP formed from precursor solutions of HA-BZA and ELP-HYD at a 1:1 BZA to HYD ratio was determined. To minimize off-target reactions, competitors were added to the precursors solution that has the same functionality, i.e., hydrazine competitors added to ELP-HYD, aldehyde competitors added to HA-BZA. At 10 mM of competitor, which represents a ratio of 4:3 of competitor to crosslinking sites, all competitors led to a significant decrease in the HELP modulus compared to the 0 mM control (FIG. 11B). Based upon the hypothesis that the relative strength of the reactions will dictate crosslinking disruption, a larger decrease in modulus with competitors that result in an aromatic hydrazone (Keq^1/Keq^2˜10^0), double aromatic hydrazone (Keq^1/Keq^2˜10^1) and alkyl hydrazone (Keq^1/Keq^2˜10^2) should be seen.
The hydrogel modulus response to increasing concentrations of competitors was next examined. The decrease in modulus is dependent upon the concentration of the competitor. To examine this dose-dependent response, the competitors with the lowest (HydAA, aromatic hydrazone) and highest (Butanal, alkyl hydrazone) Keq were selected. Increasing the concentration of HydAA from 5, 10, and 20 mM further reduced the crosslinking density and modulus (2.3, 1.8, 1.3 kPa) in a concentration dependent manner (FIG. 11C). A similar response with Butanal was seen as we increase the concentration from 5 to 10 mM (FIG. 11D).

[2] = Hydrazone reaction rates of competitors with model reactants, UV spectroscopy; type: physicochemical; details: for k1 (forward reaction rate) / k−1 (×10^−4) (reverse reaction rate): 50 μM competitor and 50 μM model reactant (BZA or HydAA), saline solution, 25° C., mean (standard deviation), n = 4; for k−1 / k1: unit not given
Method: To quantify the extent that side groups impact reaction parameters, the forward (k1) and reverse (k−1) reaction rates were measured for each competitor at 50 μM (Table 2). For these reactions, the complementary reactant was chosen to be 50 μM of either benzaldehyde (BZA) or hydrazinoacetic acid (HydAA), because they are the crosslinking functionalities of HELP, and can provide key insight into DCC interactions without the complexity of the full HA and ELP polymers. (Winne, Leibler et al. 2019) The formation of a hydrazone bond was observed via absorbance with UV spectroscopy and converted to a concentration over time. An analytical solution to a second order reaction rate, assuming equal concentrations of reactants, was fit to the concentration as a function of time. (Dirksen, Dirksen et al. 2006, Mckinnon, Domaille et al. 2014)

[3] = Theoretical half-time to equilibrium of the competitor reaction; details: 10 mM; calculated from kinetic reaction parameters
Method: Using the kinetic reaction parameters, the theoretical half-time (t1/2) to was calculated to reach equilibrium of the competitor reaction at a concentration of 10 mM (FIG. 12C). […] This is consistent with the rationale that Butanal increases the gelation time because it is capable of rapidly reacting with the crosslinking sites, preventing them from participating in gelation. […] Using a simplified half-time model of just the competitor reaction, the user is able to qualitatively capture the measured gelation times of the complex competitor and crosslinking hydrogel system.

[4] = Gelation time of HELP hydrogel with competitor; type: physicochemical; details: for gelation time: 0 mM 42.3±5.5 s; for effect on gelation time of HELP hydrogel: FIG. 12A, B, n=3-4, one-way ANOVA
Method: The HELP hydrogel composition was 2 wt % ELP-Hydrazine (fully modified) and 1 wt % HA-Benzaldehyde (30% modified).
Based upon the observed and predicted effect of the competitor on hydrogel modulus, it was reasoned that transient disruption of crosslinking would alter gelation kinetics. The competitor kinetics delays the time to reach a percolated polymer network in a dose-dependent manner. Addition of a high concentration (20 mM) of a relatively slow reacting competitor Keq competitor (HydAA, k1˜10^−1, Keq˜ 10^3) results in a modest and nonsignificant increase in gelation time (tg=48.3±3.1 s), though it softened the hydrogel modulus from ˜3 kPa to 1.3 kPa. (FIG. 12A). […] The difference in gelation times can be attributed to the difference in forward reaction rate and equilibrium constants of the competitors, which both differ by over 2 orders of magnitude between Butanal and HydAA.

[5] = HELP hydrogel homogeneity by fluorescent dye distribution; type: physicochemical; details: 10 mM competitor vs rapidly gelling HELP without competitor; stiff (~3.5 kPa) HELP
Method: We propose that by using a competitor to increase gelation times, we can overcome the limitations of rapidly gelling hydrazone-crosslinked HELP. We compared the macroscopic structure of a stiff (˜3.5 kPa) HELP formulation with and without Butanal. Without a competitor, the hydrogel rapidly gelled, resulting in a heterogenous hydrogel with nonuniform distribution of polymer. However, addition of 10 mM Butanal allowed for adequate mixing of the polymers and a homogenous hydrogel (FIG. 12E). To quantitatively evaluate the heterogeneity of HELP hydrogels with or without a competitor, we added a fluorescent dye and compared the spatial distribution of the fluorescent signal. […] By using a rapidly reaction competitor to slow down gelation kinetics, we have developed a solution to the challenge of inhomogeneous DCC hydrogels, and produced a uniform HELP hydrogel.

[6] = 10 mM competitor, HA-BZA and ELP-HYD at 1:1 BZA to HYD

Compound | gelation time ([4]; 10 mM competitor) | HELP modulus ([1]; 5 mM competitor) [kPa] | HELP modulus [1, 6] [kPa] | storage modulus (G) of HELP hydrogel, dose response [1] | fold change in modulus [1] [fold] | k1 (forward reaction rate) [2] | k−1 (×10^−4) (reverse reaction rate) [2] | theoretical half-time (t1/2) to reach equilibrium of the competitor reaction [3] [s] | effect on gelation time of HELP hydrogel [4] | k−1 [2] | k1 [2] | further results
NCc1nc2ccccc2[nH]1 [2-(Aminomethyl)benzimidazole] |  |  |  |  |  |  |  |  |  |  |  | storage modulus of HELP hydrogels with catalyst and competitor ([1]; FIG. 9, catalyst 0.10 and 25 mM with 10 mM butyraldehyde, 24 hours diffusion into preformed hydrogel, 2 wt % ELP-Hydrazine, 1 wt % HA-Benzaldehyde (30% modified)): reduced in a dose-dependent manner
O=Cc1ccccc1 [Benzaldehyde, benzaldehyde] |  |  |  |  |  | 0.276 (0.070) M^−1 s^−1 | 1.71 (0.280) ×10^−4 s^−1 | 254 ± 80 |  |  |  | 
CCCC=O [Butyraldehyde, butyraldehyde] | 92.3 ± 5.1 s | 1.75 | 0.29±0.2 | dose-dependent decrease | 0.1 | 59.9 (5.49) M^−1 s^−1 | 4.49 (1.07) ×10^−4 s^−1 | 1.59 ± 0.14 | significantly increases gelation time in a dose-dependent manner | 4.49±1.07×10^−4 |  | increase of gelation time ([4]; 5 mM competitor): ~1.7 fold; gelation time ([4]; 5 mM competitor): 74.8 ± 10.0 s; k1 ([2]; listed as Butanal): 59.9±5.49; k1 ([2]; listed as Butunal): ~10^1; variance of fluorescence intensity (hydrogel heterogeneity) [5]: significantly lower variance; HELP hydrogel formation ([1]; 20 mM competitor (2.7× crosslinking sites), listed as Butanal): disrupt formation of a hydrogel; also recorded: inhibition of HELP gel formation
NNCCO [Hydrazinoethanol, 2-hydrazinoethanol] |  |  |  |  |  | 0.690 (0.301) M^−1 s^−1 | 1.12 (0.469) ×10^−4 s^−1 |  |  | ~10^−4 | ~10^−1 | 

Continued, in another order:

gelation time ([4]; 10 mM competitor) | HELP modulus ([1]; 5 mM competitor) [kPa] | HELP modulus [1, 6] [kPa] | storage modulus (G) of HELP hydrogel, dose response [1] | fold change in modulus [1] [fold] | Compound | k1 (forward reaction rate) [2] | k−1 (×10^−4) (reverse reaction rate) [2] | theoretical half-time (t1/2) to reach equilibrium of the competitor reaction [3] [s] | effect on gelation time of HELP hydrogel [4] | k−1 [2] | k1 [2] | further results
did not significantly impact gelation | 2.3 |  | dose-dependent decrease | 0.6 | NNCC(=O)O [Hydrazinoacetic acid, hydrazinoacetic acid] | 0.276 (0.070) M^−1 s^−1 | 1.71 (0.280) ×10^−4 s^−1 | 254 ± 80 | does not significantly increase | ~10^−4 | ~10^−1 | gelation time (tg) ([4]; 20 mM HydAA (slow-reacting competitor)): 48.3 ± 3.1 s; gelation time, dose response ([4]; FIG. 4, 0, 5, 10 mM, 2 wt % ELP-Hydrazine, 1 wt % HA-Benzaldehyde (30% modified)): increased the gelation time in a dose dependent manner; increase of gelation time ([4]; FIG. 4, 10 mM, 2 wt % ELP-Hydrazine, 1 wt % HA-Benzaldehyde (30% modified)): approximately 30 seconds; HELP modulus ([1]; 10 mM competitor, HA-BZA and ELP-HYD at 1:1 BZA to HYD, listed as HydAA): 1.75±0.3 kPa and 1.8 kPa and 1.75 kPa; HELP modulus ([1]; 20 mM competitor): 1.3 kPa; storage modulus of HELP hydrogels, dose response ([1]; FIG. 2, 0, 5, 10 and 20 mM): reduced the storage modulus in a dose dependent manner; time to reach the plateau storage modulus ([1]; FIG. 3, 1 wt % ELP-Hydrazine, 1 wt % HA-Aldehyde (12% modified), 0, 5, 10, 20 mM): increased the time to reach the plateau storage modulus; storage modulus of HELP hydrogels over time ([1]; FIG. 3, 1 wt % ELP-Hydrazine, 1 wt % HA-Aldehyde (12% modified), 0, 5, 10, 20 mM, 30 minutes): reduced the storage modulus of HELP hydrogels in a dose dependent manner
 |  | 0.86±0.04 |  |  | NNc1ccc(C(=O)O)cc1 [Hydrazinobenzoic acid, 4-hydrazinobenzoic acid] | 2.10 (0.40) M^−1 s^−1 | 1.00 (0.077) ×10^−4 s^−1 |  |  | 1.00±0.077×10^−4 | 2.10±0.400 | 
